These results are taken from article PMC10474154, “Pro-arrhythmic effect of escitalopram and citalopram at serum concentrations commonly observed in older patients – a study based on a cohort of 19,742 patients” (eBioMedicine, 2023).

The conditions of data set [1]: human, in vivo.
Description: (§1) Information regarding age, sex, daily dose and time between last dose and blood sampling was also collected from the database. For patients with multiple TDM measurements, only the last measurement was included. Included patients were divided into four subgroups based on age: (a) < 18, (b) 18–64, (c) 65–80, and (d) > 80 years.
(§2) Measured serum concentrations represent total concentrations, i.e. the sum of bound and unbound drug.
(§3) All patients were included unless they met the exclusion criteria. Exclusion criteria were: (a) serum concentration of citalopram, escitalopram and/or demethylcitalopram outside the limits of quantification (LOQ), (b) blood sampling not performed at trough levels, outside the time interval of 10–28 h after last dose intake, (c) prescribed dose of citalopram or escitalopram less/more than 2.5–80 mg or 2.5–60 mg, respectively, and (d) detection of interacting drugs in the citalopram/escitalopram serum sample. In detail, we screened the samples for CYP2C19 inducers carbamazepine, phenobarbital and phenytoin and the CYP2C19 or –2D6 inhibitors bupropion, fluoxetine, fluvoxamine, paroxetine or levomepromazine.
(§4) Differences in absolute serum concentrations of citalopram, escitalopram and metabolites as well as differences in time between last blood sampling and daily dose was investigated across the age subgroups using Kruskal Wallis test followed by Dunn's test. P-values were Bonferroni corrected by multiplying the P-value by the number of statistical analyses that were performed.
Details of data set [2]: method as in earlier work. As to conditions: cited from earlier work.
On the set-up of data set [3]: method as in PMID 19841156. The note with it: cited from earlier work.
For data set [4] the following is noted: after intake of 20 mg; cited from earlier work.
The test system of data set [5] is human induced pluripotent stem cell-derived cardiomyocytes (hiPSC-CM). Nature of the data set: Action potential recordings in hiPSC-CM with voltage sensitive dye (FluoVolt, CellOPTIQ). Type of data set: cell-based. How it is done: Cryopreserved human induced pluripotent stem cell-derived cardiomyocytes (hiPSC-CM): CDI iCell cardiomycytes^2 01434 CardioTox Kit (Catalog #: R1222, FujiFilm CDI, Madison, WI) were kept in liquid nitrogen until culture according to instructions by the manufacturer. […] All studies were conducted at Clyde Biosciences (Glasgow, Scotland). Cells were cultured in 96-well glass-bottomed plates (MatTek, Ashland, Massachusetts) coated with fibronectin ([…] in PBS supplemented with Ca2+ and Mg2+) (Sigma, St. Louis, Missouri) in a humidified incubator at 37 °C for 3 h. The cell density was 50,000 cells/cm2 (25,000 cells/well). The subsequent maintenance protocols followed manufacturer's instructions using their maintenance medial (FujiFilm CDI Cardiomyocytes Maintenance Media). Experiments were performed between days 4–8. Prior to beginning an experiment, cells were washed in serum-free media (SF media), specifically DMEM (Gibco, ThermoFisher Scientific, UK) supplemented with 10 mM galactose and 10 mM sodium pyruvate.
hiPSC-CM were loaded with 5 μM FluoVolt (ThermoFisher) and the multiwell plate was placed in the CellOPTIQ platform (at Clyde Biosciences Ltd, Glasgow, Scotland). The FluoVolt fluorescence signal was recorded using a 40 × (NA 0.6) objective lens. Excitation wavelength was 480 ± 10 nm, and emitted light was collected by a photomultiplier (PMT) at 510–560 nm. Drugs were supplied by Santa Cruz Biotechnology (Germany) and Toronto Research Chemicals (Canada). Their identity and concentration were blinded from the laboratory personnel. […] 30 min after exposure to the tested drug or vehicle a 20 s recording was taken. Offline analysis was performed using proprietary software (CellOPTIQ®). The following (averaged) parameters were obtained from the AP recordings of 4 independent replicates: cycle length (CL, […]); rise time (Trise, ms) between 10 and 90% of the AP amplitude, and AP durations (APD, ms) from 10% to 90% repolarization at 10% intervals. In this study rate-correction was based on previous studies.[14]
Drugs were tested at 3 concentrations with matched vehicle controls for each concentration. The chosen escitalopram (S-citalopram) concentration was 60 nM. Assuming no protein binding in the in vitro model, this corresponds to a total serum concentration of 136 nM, as escitalopram protein binding is reported at 55–56% (most commonly 56%, which is used in the present study).[15], [16], [17] […] This could vary with age and clinical conditions.[20] […] In a large therapeutic drug monitoring (TDM) study 60 nM was the average total concentration in patients with normal escitalopram metabolism through CYP2C19, and 136 nM was below the average total concentration in poor metabolizers.[7] After administration of racemic citalopram, R-citalopram is reported to be 3 times higher than S-citalopram in a publication by Ji et al.[22] The typical concentration of R-citalopram as well as the S-/R-demethylcitalopram and S-/R-didemethylcitalopram metabolites, were calculated according to ratios from their paper.[22]
Shapiro Wilk tests were used to determine whether the data in this study were normally distributed based on a least-squares fit to a normal function, while Brown–Forsythe test was used to verify homogeneity of variance (Origin version 9, OriginLab Corp., Northampton, Massachusetts). […] Statistical tests were made using a paired t-tests for differences between absolute values, with P-values adjusted for multiple comparisons using the Benjamini-Hochberg procedure (one-way ANOVA). The relationship between AP duration at 90% of repolarization (APD90) and CL or diastolic interval was fit to single or double exponential functions (Origin version 9).

Data set [6] is described as follows: Therapeutic drug monitoring (TDM) serum concentrations in patients. The note with it: escitalopram users.
Description: as §1, §2, §3, §4
The conditions of data set [7]: cited from earlier work.
The test system of another data set is plasma protein. Set-up: method as in PMID 17375980. The note with it: listed as escitalopram; cited from earlier work.

“And” between values parts separate entries of the source, which are not always exact repeats. Equal entries are not always repeated. “Also recorded” adds a separate entry of the source. Where two headings read alike, the source gives them in different places.

On to `N#Cc1ccc2c(c1)COC2(CCCN)c1ccc(F)cc1` (stereo not drawn) [Didemethylcitalopram, didemethylcitalopram], for which, in data set [1], the “Serum concentration, 10% percentile” value worked out at 0.82 nM; the “Serum concentration, 25% percentile” value was 1.72 nM; the “Serum concentration, 50% percentile” value came to 3.47 nM; the “Serum concentration, 75% percentile” value worked out at 5.90 nM. In data set [1], the “Serum concentration, 90% percentile” value amounted to 9.65 nM; the “Serum concentration, maximum” value was found to be 35.33 nM; the “Serum concentration, minimum” value was found to be 0.34 nM. For the same compound, the “Serum concentrations associated with sudden death in dogs, relative to humans” value in data set [2] is given as 39–155 times.

For `CN(C)CCC[C@@]1(c2ccc(F)cc2)OCc2cc(C#N)ccc21` [S-citalopram], the “Clearance, typical value (CLTV)” value in data set [3] (CYP2C19 normal/rapid metabolizer) is 26.0 L/h. The “Clearance, typical value (CLTV)” value in data set [3] (CYP2C19 poor/intermediate metabolizer) is 19.8 L/h. In addition, in data set [3] (population PK model), the “Absorption rate constant, typical value (KaTV)” value is 0.8 h⁻¹ and the “Volume of distribution, typical value (VTV)” value is given as 947 L. Moreover, the “FDA-reported QTc-prolongation” value in data set [4] was 6.6 ms. Further, in data set [5] (assuming 56% plasma protein binding), the “Calculated total serum concentration corresponding to a free concentration of 60 nM (potential pro-arrhythmic activity)” value is 136 nM. For the same compound, the Triangulation effect result in data set [5] (hiPSC-CM, 10 times typical concentrations) is given as “substantial increase”. The “% Change of cycle length from baseline” value in data set [5] (hiPSC-CM, 10x clinical concentration) is recorded as -2.06±5.36%. The “% Change of cycle length from baseline” value in data set [5] (hiPSC-CM, 100x clinical concentration) is recorded as “Quiescent”. Also, in data set [5] (hiPSC-CM, 30 min exposure), the “Concentration that increased late repolarisation (APD90)” value is on record as 60 nM and the “Concentration that increased triangulation (APD90-APD30) of the action potential” value came to 60 nM. In addition, the “Effect on cycle length” value in data set [5] (hiPSC-CM, all tested concentrations) was “not affected”. Further, in data set [5] (hiPSC-CM, clinical concentration), the “% Change of cycle length from baseline” value was found to be 2.14±4.47%. Moreover, in data set [5] (hiPSC-CM, highest concentrations (100 times typical)), the “Electrical activity of the cells” value was “electrically quiescent”. In addition, in data set [5] (hiPSC-CM, increasing concentrations), the “Depolarisation (phase 0) measured by TRise” value is “No changes; also recorded: No significant increase”. The “Early and medium repolarisation (APD30 and APD50)” value in data set [5] (hiPSC-CM, intermediate concentrations) is on record as “shortening”. Further, the “Triangulation (APD90-APD30) effect” value in data set [5] (hiPSC-CM, low concentrations) is listed as “significantly increased”. Also, the “Increase in APD90” value in data set [5] (hiPSC-CM, lowest S-citalopram concentration (60 nM)) is reported as 21.9 ms. Further, the Late repolarisation entry in data set [5] (hiPSC-CM, lowest tested concentrations) was “prolonged”. In data set [5] (lowest S-citalopram concentration, translation per ref 33), the “QTc-prolongation corresponding to the APD90 increase” value came to 6.2 ms. Moreover, in data set [6] (trough), the “Serum concentration, 10% percentile” value worked out at 21 nM; the “Serum concentration, 25% percentile” value was found to be 33 nM; the “Serum concentration, 50% percentile” value was found to be 52 nM; the “Serum concentration, 75% percentile” value came to 84 nM. Further, in data set [6] (trough), the “Serum concentration, 90% percentile” value was 126 nM; the “Serum concentration, maximum” value was determined as 730 nM; the “Serum concentration, minimum” value came to 7 nM. Moreover, in data set [6] (trough (10-28 h after dose)), the “Serum concentration, mean” value was 66 nM. The “% of serum concentrations above 136 nM” value in data set [1] was 5.4-15.9%. The “Serum concentrations per dose, patients >65 years versus adults <40 years” value in data set [7] was 1.4 times. Further, in data set [7] (large TDM study), the “Average total concentration in CYP2C19 poor metabolizers” value is more than 136 nM and the “Average total concentration in patients with normal escitalopram metabolism through CYP2C19” value was 60 nM. Further, in data set [7] (listed as escitalopram), the “Time of maximum concentration after intake (Tmax)” value was 3 to 4 h and 3.0 ± 1.5 h. Moreover, in the data set on plasma protein, the Plasma protein binding was 55–56% and 56%.
